The values below come from ChEMBL document CHEMBL1129358, “Esters and amides of 6-(chloromethyl)-2-oxo-2H-1-benzopyran-3-carboxylic acid as inhibitors of alpha-chymotrypsin: significance of the "aromatic" nature of the novel ester-type coumarin for strong inhibitory activity” (J Med Chem, 1996).

pKi: −log10 of the molar value. The source made the active and inactive calls. The rule behind the calls is not given here.

Experiment [1] addresses Chymotrypsinogen A (Bos taurus) (UniProt P00766). The experiment can be described thus: Ratio between k inactivation and KI of alpha-chymotrypsin.
The target in experiment [2] is T1, Neutrophil elastase (Homo sapiens) (UniProt P08246).
T1 sequence (whole entry): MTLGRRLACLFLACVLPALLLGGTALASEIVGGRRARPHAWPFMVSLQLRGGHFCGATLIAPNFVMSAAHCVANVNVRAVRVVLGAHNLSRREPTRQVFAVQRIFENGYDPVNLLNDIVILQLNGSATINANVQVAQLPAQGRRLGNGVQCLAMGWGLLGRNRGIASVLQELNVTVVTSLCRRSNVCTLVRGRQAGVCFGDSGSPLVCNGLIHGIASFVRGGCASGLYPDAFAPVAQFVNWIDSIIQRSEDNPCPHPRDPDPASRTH
The experiment can be described thus: Ratio between k observed and KI of Human leukocyte elastase (HEL).

Experiment [3] deals with T1, Neutrophil elastase (Homo sapiens). The experiment can be described thus: Ratio between k observed and KI of Human leukocyte elastase (HEL);[…].
The target in a further experiment is Chymotrypsinogen A (Bos taurus, UniProt P00766). The experiment can be described thus: Compound was tested for the binding affinity against alpha-chymotrypsin.
Experiment [4] deals with Chymotrypsinogen A (Bos taurus) (UniProt P00766). The experiment can be described thus: Compound was tested for the Inactivation of alpha-chymotrypsin.
Experiment [5] has the same target. Nature of the experiment: Ratio between k inactivation and KI of alpha-chymotrypsin; No inhibition.
In experiment [6] the test system is alpha-chymotrypsin (Bos taurus). The experiment can be described thus: Ratio between k observed and KI of bovine alpha-chymotrypsin at 20 degree C.

In the case of `O=C(Oc1cccc(Cl)c1)c1cc2cc(CCl)ccc2oc1=O`, in experiment [1], the K inact/Ki was 763000 M⁻¹ s⁻¹. Besides, the K obs / 1 in experiment [2] worked out at 630 M⁻¹ s⁻¹.

Regarding `COC(=O)C(Cc1ccccc1)NC(=O)c1cc2cc(CCl)ccc2oc1=O` (stereo unspecified), the “K obs / 1” value in experiment [3] is “inactive”. In experiment [1], the K inact/Ki is 80 M⁻¹ s⁻¹.

The term pKi denotes the negative decadic logarithm of the Ki, by convention in mol/L. A high value points to a small Ki. `O=C(Oc1ccccc1I)c1cc2cc(CCl)ccc2oc1=O` had a pKi on Chymotrypsinogen A of 6.60. In addition, the K inact/Ki in experiment [1] came out at 80000 M⁻¹ s⁻¹. Moreover, the K inact in experiment [4] is 0.02 s⁻¹. Moreover, the K obs / 1 in experiment [2] came to 85 M⁻¹ s⁻¹.

`Cc1ccc(OC(=O)c2cc3cc(CCl)ccc3oc2=O)cc1`: in experiment [3], the “K obs / 1” value is “inactive”. In experiment [1], the K inact/Ki was 685 M⁻¹ s⁻¹.

With `CCCCCOC(=O)c1cc2cc(CCl)ccc2oc1=O`, the “K obs / 1” value in experiment [3] was “inactive”. Moreover, the K inact/Ki in experiment [1] stood at 12 M⁻¹ s⁻¹.

With `O=C(Oc1ccc(Cl)cc1)c1cc2cc(CCl)ccc2oc1=O`, the “K obs / 1” value in experiment [3] was “inactive”. The K inact/Ki in experiment [1] turned out to be 330 M⁻¹ s⁻¹.

Consider `Cc1ccccc1OC(=O)c1cc2cc(CCl)ccc2oc1=O`, for which the “K obs / 1” value in experiment [3] is “inactive”. The compound further showed a pKi at Chymotrypsinogen A of 6.42. Also, the K inact/Ki in experiment [1] was determined as 114000 M⁻¹ s⁻¹. Moreover, the K inact in experiment [4] is 0.043 s⁻¹.

With `COC(=O)CNC(=O)c1cc2cc(CCl)ccc2oc1=O`, in experiment [3], the “K obs / 1” value was “inactive”. Moreover, in experiment [1], the K inact/Ki was determined as 12 M⁻¹ s⁻¹.

In the case of `CC(C)NC(=O)c1cc2cc(CCl)ccc2oc1=O`, the “K obs / 1” value in experiment [3] was “inactive”. The “K inact/Ki” value in experiment [5] is “inactive”.

Turning to `O=C(Oc1cccc([N+](=O)[O-])c1)c1cc2cc(CCl)ccc2oc1=O`, the K inact/Ki in experiment [1] came out at 11300 M⁻¹ s⁻¹. For the same compound, the K obs / 1 in experiment [2] is 500 M⁻¹ s⁻¹.

As for `O=C(NCCc1ccccc1)c1cc2cc(CCl)ccc2oc1=O`, the “K obs / 1” value in experiment [3] is “inactive”. Moreover, in experiment [1], the K inact/Ki is 6 M⁻¹ s⁻¹.

In the case of `O=C(Oc1ccccc1Cl)c1cc2cc(CCl)ccc2oc1=O`, the pKi on Chymotrypsinogen A is 6.10. Moreover, the K inact/Ki in experiment [1] came out at 48100 M⁻¹ s⁻¹. Further, the K inact in experiment [4] came out at 0.038 s⁻¹. Also, the K obs / 1 in experiment [2] was found to be 23 M⁻¹ s⁻¹.

Turning to `COC(=O)c1cc2cc(CCl)ccc2oc1=O`, the “K obs / 1” value in experiment [3] was “inactive”. In experiment [1], the K inact/Ki came to 110 M⁻¹ s⁻¹.

For `CCCCCCCCOC(=O)c1cc2cc(CCl)ccc2oc1=O`, the “K obs / 1” value in experiment [3] is “inactive”. Moreover, in experiment [1], the K inact/Ki came to 190 M⁻¹ s⁻¹.

For `O=C(O)c1cc2cc(CCl)ccc2oc1=O`, the “K obs / 1” value in experiment [3] was “inactive”. The “K inact/Ki” value in experiment [5] was “inactive”.

As to `CCCCCNC(=O)c1cc2cc(CCl)ccc2oc1=O`, in experiment [3], the “K obs / 1” value is “inactive”. For the same compound, in experiment [5], the “K inact/Ki” value was “inactive”.

Take `CCCCCCCCCCNC(=O)c1cc2cc(CCl)ccc2oc1=O`: in experiment [3], the “K obs / 1” value was “inactive”.

As to `O=C(OCc1ccccc1)c1cc2cc(CCl)ccc2oc1=O`, the “K obs / 1” value in experiment [3] was “inactive”. In addition, the K inact/Ki in experiment [1] came to 186 M⁻¹ s⁻¹.

With `O=C(Nc1ccccc1)c1cc2cc(CCl)ccc2oc1=O`, the “K obs / 1” value in experiment [3] is “inactive”. Further, in experiment [1], the K inact/Ki came out at 32 M⁻¹ s⁻¹.

As for `CC(C)OC(=O)c1cc2cc(CCl)ccc2oc1=O`, in experiment [3], the “K obs / 1” value was “inactive”. At Chymotrypsinogen A, this compound gave a pKi of 4.80. Besides, the K inact/Ki in experiment [1] was found to be 687 M⁻¹ s⁻¹. The K inact in experiment [4] came out at 0.011 s⁻¹.

`Cc1cccc(OC(=O)c2cc3cc(CCl)ccc3oc2=O)c1`: in experiment [3], the “K obs / 1” value is “inactive”. In addition, in experiment [1], the K inact/Ki was found to be 71800 M⁻¹ s⁻¹.

In the case of `O=C(Oc1ccc(I)cc1)c1cc2cc(CCl)ccc2oc1=O`, the “K obs / 1” value in experiment [3] is “inactive”. Also, the K inact/Ki in experiment [1] worked out at 1780 M⁻¹ s⁻¹.

`O=C(NCc1ccccc1)c1cc2cc(CCl)ccc2oc1=O`: the K inact/Ki in experiment [1] was 24 M⁻¹ s⁻¹. For the same compound, in experiment [2], the K obs / 1 stood at 58 M⁻¹ s⁻¹.

Consider `O=C(Oc1cccc(I)c1)c1cc2cc(CCl)ccc2oc1=O`, for which the K inact/Ki in experiment [1] came out at 72100 M⁻¹ s⁻¹. Also, in experiment [2], the K obs / 1 stood at 85 M⁻¹ s⁻¹.

For the compound `O=c1ccc2cc(CBr)ccc2o1`, in experiment [6], the K obs / 1 was 12.5 M⁻¹ s⁻¹.

For `CNC(=O)c1cc2cc(CCl)ccc2oc1=O`, the “K obs / 1” value in experiment [3] was “inactive”. Moreover, the “K inact/Ki” value in experiment [5] was “inactive”.

With `C=CCOC(=O)c1cc2cc(CCl)ccc2oc1=O`, the “K obs / 1” value in experiment [3] is “inactive”. This compound had a pKi on Chymotrypsinogen A of 4.48. Further, the K inact/Ki in experiment [1] was 424 M⁻¹ s⁻¹. Further, the K inact in experiment [4] was determined as 0.014 s⁻¹.

For `O=C(Oc1ccccc1)c1cc2cc(CCl)ccc2oc1=O`, the pKi at Chymotrypsinogen A was 6.47. Besides, the K inact/Ki in experiment [1] stood at 100000 M⁻¹ s⁻¹. In addition, the K inact in experiment [4] is 0.034 s⁻¹. The K obs / 1 in experiment [2] was 23 M⁻¹ s⁻¹.

`CCOC(=O)c1cc2cc(CCl)ccc2oc1=O`: in experiment [3], the “K obs / 1” value was “inactive”. Also, on Chymotrypsinogen A, the pKi is 4.23. Further, in experiment [1], the K inact/Ki came to 220 M⁻¹ s⁻¹. Besides, the K inact in experiment [4] is 0.013 s⁻¹.

`C=CCNC(=O)c1cc2cc(CCl)ccc2oc1=O`: the “K obs / 1” value in experiment [3] is “inactive”. Further, the K inact/Ki in experiment [1] turned out to be 80 M⁻¹ s⁻¹.

With `Cc1cc(OC(=O)c2cc3cc(CCl)ccc3oc2=O)ccc1Cl`, the K inact/Ki in experiment [1] was 7550 M⁻¹ s⁻¹. Further, the K obs / 1 in experiment [2] is 90 M⁻¹ s⁻¹.

For the compound `Cc1ccc2oc(=O)c(C(=O)Oc3ccccc3)cc2c1`, the K obs / 1 in experiment [2] turned out to be 330 M⁻¹ s⁻¹. Besides, the “K inact/Ki” value in experiment [5] was “inactive”.
